Tests used:
ECHCG = assay: E. Herbicidal post-emergence action, weed and crop plants (Tables E); format: in vivo, Echinochloa crus-galli; conditions: application rate 320 g/ha, visual assessment after ca. 3 weeks
Excerpt: (§1) Seeds of mono- and dicotyledonous weed plants and crop plants were sown, in plastic or organic planting pots, in sandy loam, covered with soil and grown in a greenhouse under controlled growth conditions. 2 to 3 weeks after sowing, the test plants were sprayed in the single-leaf stage. The compounds according to the invention, formulated in form of wettable powders (WP) or as emulsifiable concentrates (EC), were sprayed onto the green plant parts as aqueous suspension or emulsion, with the addition of 0.5% of an additive, at an application rate of 6001 of water/ha (converted). The test plants were placed in the greenhouse for ca. 3 weeks under optimum growth conditions, and then the effect of the preparations was assessed visually in comparison with untreated controls (herbicidal effect in percent (%): 100% effect = plants have died off, 0% effect = as control plants). Tables E1 to E7 below show the effects of selected compounds of the general formula (I) according to table 1 on various harmful plants and an application rate corresponding to 320 g/ha or below obtained by the experimental procedure mentioned above. Table E1: post-emergence activity at 320g/ha against ALOMY in %

DIGSA = assay: B. Herbicidal post-emergence action on harmful plants (Tables B); format: in vivo, Digitaria sanguinalis
Summary of the method: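 Activity was scored visually as % damage (100% = dead, 0% = like untreated) about 3 weeks after treatment. Plants at the one-leaf stage, 2-3 weeks old, were sprayed with WP/EC formulations plus 0.5% additive (600 L/ha water, up to 1280 g/ha). Plants were grown in sandy loam in a greenhouse.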

ALOMY [1] = assay: as above; format: in vivo, Alopecurus myosuroides
Protocol: Seeds of mono- and dicotyledonous weed plants were placed in plastic pots in sandy loam soil (doubly sown with in each case one species of mono- or dicotyledonous weed plants per pot), covered with soil and cultivated in a greenhouse under controlled growth conditions. 2 to 3 weeks after sowing, the test plants were treated at the one-leaf stage. The compounds of the invention, formulated in the form of wettable powders (WP) or as emulsion concentrates (EC), were applied onto the green parts of the plants as aqueous suspension or emulsion with addition of 0.5% additive at a water application rate of 600 liters per hectare (converted). After the test plants had been kept in the greenhouse under optimum growth conditions for about 3 weeks, the activity of the preparations was rated visually in comparison to untreated controls. For example, 100% activity = the plants have died, 0% activity = like control plants. Tables B1 to B12, below, show the effects of selected compounds of the general formula (I) according to table 1 on various harmful plants and an application rate corresponding to 1280 g/ha or below obtained by the experimental procedure mentioned above. Table B1a: post-emergence activity at 1280g/ha against ABUTH in %

ALOMY [2] = assay: E. Herbicidal post-emergence action, weed and crop plants (Tables E); format: in vivo, Alopecurus myosuroides; conditions: application rate 320 g/ha, visual assessment after ca. 3 weeks
Excerpt: as §1

ORYZA = assay: F. Post-emergence effects on crop plants (Tables F); format: in vivo, Oryza sativa; conditions: crop plant
Excerpt: as §1, with “F1” for “E1”, “F5” for “E7”, “crop” for “harmful”, “[…]:” for “E1:”, “ZEAMX” for “ALOMY”

AMARE [3] = assay: A. Herbicidal pre-emergence action on harmful plants (Tables A); format: in vivo, Amaranthus retroflexus
Summary of the method: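 Greenhouse pre-emergence test: compound applied to the soil surface at 1280 g/ha or below, and herbicidal effect rated visually at ca. 3 weeks on a 0–100% scale against untreated plants.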

VERPE = assay: C. Herbicidal pre-emergence action, weed and crop plants (Tables C); format: in vivo, Veronica persica; conditions: application rate 320 g/ha; Table C11
Excerpt: (§2) Seeds of mono- and dicotyledonous weed plants and crop plants were sown, in plastic or organic planting pots, in sandy loam and covered with soil. The compounds according to the invention, formulated in the form of wettable powders (WP) or as emulsifiable concentrates (EC), were applied to the surface of the covering soil as aqueous suspension or emulsion, with the addition of 0.5% of an additive, at an application rate of 6001 of water/ha (converted). Following treatment, the pots were placed in a greenhouse and kept under optimum growth conditions for the test plants. The visual grading of the damage to the test plants was carried out after ca. 3 weeks in comparison to untreated controls (herbicidal effect in percent (%): 100% effect = plants have died off, 0% effect = as control plants). Tables C1 to C12 below show the effects of selected compounds of the general formula (I) according to table 1 on various harmful plants and an application rate corresponding to 320 g/ha or below obtained by the experimental procedure mentioned above. Table C1: pre-emergence activity at 320g/ha against KCHSC in %

LOLRI = assay: E. Herbicidal post-emergence action, weed and crop plants (Tables E); format: in vivo, Lolium rigidum; conditions: application rate 320 g/ha, visual assessment after ca. 3 weeks
Excerpt: as §1

AMARE [4] = assay: C. Herbicidal pre-emergence action, weed and crop plants (Tables C); format: in vivo, Amaranthus retroflexus; conditions: application rate 320 g/ha; Table C3
Excerpt: as §2

[5] = application rate 1280 g/ha, Table B12a
[6] = application rate 320 g/ha, Table B9b
[7] = application rate 1280 g/ha, Table B9a
[8] = application rate 1280 g/ha, visual grading after ca. 3 weeks vs untreated controls, 100% = plants have died off, 0% = as control plants
[9] = application rate 320 g/ha, Table A8b

| SMILES | post-emergence activity against ECHCG in % (ECHCG) | post-emergence activity against DIGSA (DIGSA; [5]) | post-emergence activity against ALOMY (ALOMY [1]; [7]) | post-emergence activity against ALOMY in % (ALOMY [2]) | post-emergence activity against ORYZA in % (ORYZA; application rate 80 g/ha) | pre-emergence activity against AMARE (AMARE [3]; [8]) | pre-emergence activity against VERPE (VERPE) | other results |
| --- | --- | --- | --- | --- | --- | --- | --- | --- |
| COCc1nn(C)cc1C(=O)N1CCCC1Cc1ccccc1F (racemic) [Example I-002] | 80% |  |  |  |  |  |  |  |
| Cn1cc(C(=O)N2CCCC2Cc2ccccc2F)c(COc2ccccc2)n1 (racemic) [Example I-006] |  | 90% | 90% | 90% | 0% |  |  | post-emergence activity against ALOMY (ALOMY [1]; [6]): 90%; post-emergence activity against ORYZA in % (ORYZA; application rate 320 g/ha): 0% |
| Cn1cc(C(=O)N2CCCC2Cc2ccc(F)cc2F)c(COc2ccccc2)n1 (racemic) [Example I-008] |  |  | 90% |  | 0% |  |  | post-emergence activity against ORYZA in % (ORYZA; application rate 320 g/ha): 0% |
| C=C(c1ccccc1F)C1CCCN1C(=O)c1cn(C)nc1COC (racemic) [Example I-023] |  | 90% |  |  |  | 90% |  |  |
| CNC(=O)n1cc(C(=O)N2CCCC2Cc2ccccc2F)c(COC)n1 (racemic) [Example I-051] |  |  |  | 80% |  |  |  |  |
| COCc1c(C(=O)N2CCCC2Cc2ccccc2Cl)cnn1C (racemic) [Example I-170] | 80% |  | 90% | 80% | 0% |  | 80% | post-emergence activity against LOLRI in % (LOLRI): 80% |
| COCc1nn(C)cc1C(=O)N1CCCC1Cc1ccccc1F (single isomer, unassigned) [Example I-003] | 80% | 100% | 100% | 80% | 0% | 90% | 80% | post-emergence activity against DIGSA (DIGSA; application rate 80 g/ha, Table B12c): 100%; post-emergence activity against DIGSA (DIGSA; application rate 320 g/ha, Table B12b): 100%; pre-emergence activity against AMARE (AMARE [3]; [9]): 90%; post-emergence activity against ALOMY (ALOMY [1]; application rate 80 g/ha, Table B9c): 100%; post-emergence activity against ALOMY (ALOMY [1]; [6]): 100%; post-emergence activity against LOLRI in % (LOLRI): 80%; pre-emergence activity against AMARE (AMARE [4]): 90% |
| COCc1nn(C)cc1C(=O)N1CCCC1C(O)c1ccccc1F (single isomer, unassigned) [Example I-053] |  |  |  |  |  |  | 80% | pre-emergence activity against AMARE (AMARE [4]): 90% |
| COCc1c(C(=O)N2CCCC2Cc2ccccc2F)cnn1C (single isomer, unassigned) [Example I-157] |  |  |  | 80% | 10% | 90% | 80% | pre-emergence activity against AMARE (AMARE [3]; [9]): 90% |
